Like-named read-outs stand apart in the source and are kept apart here.
How the values were obtained:
[1] = Pharmacokinetics of intraperitoneal or intravenous injection in CD1 mice; assay type: in vivo; settings: for Conc. (ng/mL) Mouse 1 / Conc. (ng/mL) Mouse 2 / Conc. (ng/mL) Mouse 3 / concentration at 0.25 h / concentration at 0.5 h / concentration at 1 h / concentration at 2 h / concentration at 4 h / concentration at 8 h / concentration at 0.033 h / concentration at 0.083 h: CD1 mice plasma; for concentration at 0.25 h / concentration at 0.5 h / concentration at 1 h / concentration at 2 h / concentration at 4 h / concentration at 8 h / AUC(0-t) / half-life / concentration at 0.033 h / concentration at 0.083 h: male, CD1, mouse, plasma
Method in brief: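 Male CD1 mice, 6-8 weeks old, 3 per group, dosed IV (5 s injection; 10% HP-b-CD, 40 mM sodium acetate, 40 mM NaCl, pH 4.5) or IP (5% EtOH, 5% Solutol HS15 in D5W). Serial dorsal metatarsal vein blood, terminal heart puncture; plasma analysed by LC/MS/MS after acetonitrile precipitation, calibration 1-2000 ng/mL.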

PPB = assay type: in vitro ADME; settings: plasma
[2] = ip, 10 mg/kg, IP 10 mg/kg, read-out: Conc. (ng/mL) Mouse 1
[3] = ip, 10 mg/kg, IP 10 mg/kg, read-out: Conc. (ng/mL) Mouse 2
[4] = ip, 10 mg/kg, IP 10 mg/kg, read-out: Conc. (ng/mL) Mouse 3
[5] = ip, 10 mg/kg, IP 10 mg/kg, read-out: Mean
[6] = iv, 1 mg/kg, IV 1.0 mg/kg, read-out: Conc. (ng/mL) Mouse 1
[7] = iv, 1 mg/kg, IV 1.0 mg/kg, read-out: Conc. (ng/mL) Mouse 2
[8] = iv, 1 mg/kg, IV 1.0 mg/kg, read-out: Conc. (ng/mL) Mouse 3
[9] = iv, 1 mg/kg, IV 1.0 mg/kg, read-out: Mean

Cc1ncsc1-c1ccc(CNC(=O)[C@@H]2C[C@@H](O)CN2C(=O)[C@@H](NC(=O)CCOCCOc2ccc(Nc3ncc(C(F)(F)F)c(NCc4cccc(N(C)S(C)(=O)=O)c4)n3)cc2)C(C)(C)C)cc1 [Compound 102, (2S,4R)-1-((S)-3,3-dimethyl-2-(3-(2-(4-((4-((3-(N-methylmethylsulfonamido)benzyl)amino)-5-(trifluoromethyl)pyrimidin-2-yl)amino)phenoxy)ethoxy)propanamido)butanoyl)-4-hydroxy-N-(4-(4-methylthiazol-5-yl)benzyl)pyrrolidine-2-carboxamide]
Conc. (ng/mL) Mouse 1 ([1]; IP 10 mg/kg, 24 h): BLOQ | Conc. (ng/mL) Mouse 2 ([1]; IP 10 mg/kg, 24 h): BLOQ | Conc. (ng/mL) Mouse 3 ([1]; IP 10 mg/kg, 24 h): BLOQ | Conc. (ng/mL) Mouse 1 ([1]; IV 1.0 mg/kg, 4 h): BLOQ | Conc. (ng/mL) Mouse 2 ([1]; IV 1.0 mg/kg, 4 h): BLOQ | Conc. (ng/mL) Mouse 1 ([1]; IV 1.0 mg/kg, 8 h): BLOQ | Conc. (ng/mL) Mouse 2 ([1]; IV 1.0 mg/kg, 8 h): BLOQ | Conc. (ng/mL) Mouse 3 ([1]; IV 1.0 mg/kg, 8 h): BLOQ | Conc. (ng/mL) Mouse 1 ([1]; IV 1.0 mg/kg, 24 h): BLOQ | Conc. (ng/mL) Mouse 2 ([1]; IV 1.0 mg/kg, 24 h): BLOQ | Conc. (ng/mL) Mouse 3 ([1]; IV 1.0 mg/kg, 24 h): BLOQ | concentration at 0.25 h [1, 2]: 521 ng/mL | concentration at 0.25 h [1, 3]: 432 ng/mL | concentration at 0.25 h [1, 4]: 338 ng/mL | concentration at 0.25 h [1, 5]: 431 ng/mL | concentration at 0.5 h [1, 2]: 674 ng/mL | concentration at 0.5 h [1, 3]: 546 ng/mL | concentration at 0.5 h [1, 4]: 551 ng/mL | concentration at 0.5 h [1, 5]: 591 ng/mL | concentration at 1 h [1, 2]: 2540 ng/mL | concentration at 1 h [1, 3]: 2130 ng/mL | concentration at 1 h [1, 4]: 2120 ng/mL | concentration at 1 h [1, 5]: 2260 ng/mL | concentration at 2 h [1, 2]: 1690 ng/mL | concentration at 2 h [1, 3]: 1070 ng/mL | concentration at 2 h [1, 4]: 1700 ng/mL | concentration at 2 h [1, 5]: 1490 ng/mL | concentration at 4 h ([1]; ip, 10 mg/kg, IP 10 mg/kg, 4 h, read-out: Conc. (ng/mL) Mouse 1): 560 ng/mL | concentration at 4 h ([1]; ip, 10 mg/kg, IP 10 mg/kg, 4 h, read-out: Conc. (ng/mL) Mouse 2): 529 ng/mL | concentration at 4 h ([1]; ip, 10 mg/kg, IP 10 mg/kg, 4 h, read-out: Conc. (ng/mL) Mouse 3): 559 ng/mL | concentration at 4 h ([1]; ip, 10 mg/kg, IP 10 mg/kg, 4 h, read-out: Mean): 549 ng/mL | concentration at 8 h ([1]; ip, 10 mg/kg, IP 10 mg/kg, 8 h, read-out: Conc. (ng/mL) Mouse 1): 36.4 ng/mL | concentration at 8 h ([1]; ip, 10 mg/kg, IP 10 mg/kg, 8 h, read-out: Conc. (ng/mL) Mouse 2): 92.3 ng/mL | concentration at 8 h ([1]; ip, 10 mg/kg, IP 10 mg/kg, 8 h, read-out: Conc. (ng/mL) Mouse 3): 124 ng/mL | concentration at 8 h ([1]; ip, 10 mg/kg, IP 10 mg/kg, 8 h, read-out: Mean): 84 ng/mL | AUC(0-t) ([1]; ip, 10 mg/kg, read-out: AUClast (h * ng/mL) IP): 6.26 µg·h/mL | half-life ([1]; ip, 10 mg/kg, read-out: T ½ (h) IP (converted)): 1.46 h | concentration at 0.033 h [1, 6]: 1920 ng/mL | concentration at 0.033 h [1, 7]: 1820 ng/mL | concentration at 0.033 h [1, 8]: 1850 ng/mL | concentration at 0.033 h [1, 9]: 1860 ng/mL | concentration at 0.083 h [1, 6]: 249 ng/mL | concentration at 0.083 h [1, 7]: 368 ng/mL | concentration at 0.083 h [1, 8]: 333 ng/mL | concentration at 0.083 h [1, 9]: 317 ng/mL | concentration at 0.25 h [1, 6]: 55.9 ng/mL | concentration at 0.25 h [1, 7]: 67.4 ng/mL | concentration at 0.25 h [1, 8]: 71.8 ng/mL | concentration at 0.25 h [1, 9]: 65.1 ng/mL | concentration at 0.5 h [1, 6]: 23.7 ng/mL | concentration at 0.5 h [1, 7]: 33.2 ng/mL | concentration at 0.5 h [1, 8]: 37.6 ng/mL | concentration at 0.5 h [1, 9]: 31.5 ng/mL | concentration at 1 h [1, 6]: 11.8 ng/mL | concentration at 1 h [1, 7]: 16.7 ng/mL | concentration at 1 h [1, 8]: 18.4 ng/mL | concentration at 1 h [1, 9]: 15.6 ng/mL | concentration at 2 h [1, 6]: 6.9 ng/mL | concentration at 2 h [1, 7]: 9.2 ng/mL | concentration at 2 h [1, 8]: 6.75 ng/mL | concentration at 2 h [1, 9]: 7.62 ng/mL | concentration at 4 h ([1]; iv, 1 mg/kg, IV 1.0 mg/kg, 4 h, read-out: Conc. (ng/mL) Mouse 3): 2.09 ng/mL | AUC(0-t) ([1]; iv, 1 mg/kg, read-out: AUClast (h * ng/mL) IV): 0.264 µg·h/mL | half-life ([1]; iv, 1 mg/kg, read-out: T ½ (h) IV (converted)): 0.905 h | fraction unbound (PPB): 0.0066
